Laboratory results reported in patent US12383653B2, “Neutral multidomain peptide hydrogels and uses thereof” (William Marsh Rice University, priority 2018, dated 2025).
Entries after “also recorded” stand apart in the source; their conditions may differ. Where a SMILES comes first, the peptide text is derived from it. [ ]: non-standard residue; d: D form. Hyp = O=C(O)[C@@H]1C[C@@H](O)CN1

Assays:
NIH-3T3 fibroblasts = experiment: 3D culture cytocompatibility, Calcein AM / Ethidium homodimer-1 viability and cell morphology; assay type: cell-based
Procedure: (§1) Cytocompatibility and cell viability studies. All cell culture materials, not otherwise specified, were purchased from Gibco, Life Technologies. NIH-3T3 fibroblast cells were cultured in Dulbecco's Modified Eagle Medium (DMEM) supplemented with 10% Fetal Bovine Serum (FBS), 2% L-glutamine (200 mM), 1% sodium pyruvate (100 mM), and 1% pen-strep solution (5000 units/mL of penicillin and 5 mg/mL of streptomycin, Sigma-Aldrich, St. Louis, MO). Cells were maintained at 37° C. and 5% CO2 with humidity and split when reaching 80%-90% confluency by treatment with 0.25% trypsin-EDTA and neutralization with complete media. Cells were centrifuged for 6 min at 1600 rpm, then the cell pellet was dispersed in HBSS, counted and adjusted to the required concentration. 3D cell culture in K2 hydrogel was achieved by mixing a 2% by weight peptide stock solution in 298 mM sucrose with a cell suspension of 2×10^6 cells/mL in HBSS. The final concentration was 1% by weight K2 hydrogel in 149 mM sucrose and 0.5×HBSS with 1×10^6 cells/mL. For O5 peptide, hydrogel was prepared by sonication using only 90% of the required 149 mM sucrose-0.5×HBSS to obtain a 1% by weight concentration, the remaining 10% was added as a cell suspension, and mixed by pipetting into the gel to obtain a final concentration of 1×10^6 cells/mL evenly distributed though the volume of the hydrogel. 70 μL of seeded hydrogels were cultured in a Lab-Tek 16-well glass chamber ([…], Thermo Fisher, Rochester, NY) with 200 μL of medium and fed every 2 days by replacing 100 μL with fresh media. Cell viability was analyzed using a live/dead viability kit (Invitrogen, Thermo Fisher, Carlsbad, CA). At specific time points, the medium was removed, and gels were rinsed with 1×PBS, then 100 μL of staining solution containing 2 μM Calcein AM and 4 μM Ethidium homodimer-1 in DPBS were added. Cells were incubated from 15 to 30 min and imaged using a Nikon A1 Rsi fluorescent confocal microscope (Nikon Instruments, Tokyo, Japan). Three z-stack images of 100 μm deep per sample were taken at 20× using a 488 nm green channel and 561 nm red channel lasers. Images were processed with NIS Element and live/dead cell counting was performed on Imaris 3D/4D Image Processing software (Bitplane, Concord, MA).
(§2) To evaluate the cell morphology, hydrogels were rinsed with PBS and fixed with 10% buffered formalin for 30 min Cells were treated with 0.5% Triton X for 10 min and 100 mM glycine for 10 min, followed by 10% Bovine Serum Albumin (BSA) in HBSS block solution. Then cells were stained for filamentous actin with Alexa Fluor® 488-Phalloidin and for the nuclei with ProLong® Gold Antifade DAPI mounting media. Cell in the hydrogels were analyzed by confocal microscopy using a 40× water objective and processed as described.

[1] = as above; assay type: cell-based; details: mouse; day 1 after encapsulation, 1 wt.% hydrogel; read-out: percentage of viable cells
Procedure: as §1, §2

[2] = Secondary structure estimation from circular dichroism in TFE, least square linear method; assay type: physicochemical; details: TFE at 25° C., 1 wt.%
Procedure: Circular Dichroism (CD) spectroscopy. For secondary structure characterization, peptide solutions of 1% by weight (molar concentration is included in Table 2) were prepared in 2,2,2-trifluoroethanol (TFE, Sigma Aldrich, St. Louis, MO). CD spectra acquisition was performed in a CD Jasco J-810 spectropolarimeter (Jasco Inc., Easton, MD) using a 0.01 mm cuvette. Data were collected at room temperature from 180 to 250 nm at a speed of 50 nm/min, with a 0.1 nm data pitch and the spectra were averaged over 5 scans. To study the hydrogelation of O5, 1% by weight peptide solutions were made in 149 mM sucrose solution in 0.5× Hank's Balanced Salt Solution (HBSS, Life Technologies) and analyzed as previously described.
To estimate the secondary structure of O peptide series, data fitting using the least square linear method was performed in MATLAB (Mathworks, Natick, MA). (Hyp)6, O1(SL)6O1 and K2(SL)6K2 were used as basis spectra for polyproline type II, β-sheet and α-helix, respectively (FIG. 7).

[3] = In vivo host response, subcutaneous injection model; parameters: species or system mice
Procedure: In vivo compatibility studies. All experimental procedures were approved by the Rice University Institutional Animal Care and Use Committee (IACUC) and performed according to the Animal Welfare Act and NIH guidelines. Female C57BL/6 mice from 8 to 12 weeks were purchased from Charles River (Wilmington, MA). Mice were injected with 4 implants of 100 μL 1% by weight O5 hydrogel in the dorsal subcutaneous space using a 26-gauge needle. At days 3, 7, and 14 mice were euthanized, and implants were extracted, fixed with 10% neutral buffered formalin and processed into paraffin blocks. Tissue was sectioned at 5 μm thickness and stained with hematoxylin and eosin, and Masson's trichome under standard procedures. For fluorescent immunostaining, tissue sections were deparaffinized, hydrated and antigens were retrieved by boiling in sodium citrate buffer (10 mM sodium citrate, 0.05% Tween 20 at pH 6.0). Tissues were permeabilized with 0.5% Triton X and blocked with 1% BSA in PBS for 30 min. Tissues were incubated overnight at 4° C. with rat anti-Mouse F4/80 monoclonal antibody (1:50, clone BM8, eBioscience™, Cat #14-4801-82). Then, samples were incubated for 1 hour with goat anti-rat AlexaFluor® 568 (1:500, Invitrogen), followed by mounting with ProLong® Gold Antifade reagent with DAPI. Tissue slides were analyzed by confocal fluorescent microscopy.

[4] = Oscillatory rheology of 1 wt.% hydrogel; assay type: physicochemical
Procedure: Oscillatory Rheology. Rheological properties of O5 hydrogel were analyzed by oscillatory rheology using a TA Instruments AR-G2 rheometer (TA Instruments, New Castle, DE). Hydrogels were prepared 24 h before the analysis as described above. 150 μL of 1% by weight peptide hydrogels were transferred from a cut syringe onto the rheometer stage equipped with a 12 mm stainless-steel parallel plate set to a 1000 μm gap height. The following program was used to monitor the storage modulus (G′) and loss modulus (G″) under various conditions as has been previously published (Li et al., 2017). Strain sweep analysis was performed using an applied strain of 0.01%-200% at a frequency of 1 rad/s. Frequency sweep analysis was performed under 1% strain at 0.1-100 rad/s. Shear recovery analysis was performed by subjecting the peptide sample to 1% strain for 20 min, then 200% for 1 min, and finally 1% for 20 min, allowing for disruption of the hydrogel and monitoring of G′ and G″ recovery.

[5] = Hydrogel formation (inverted-vial test, pH, ionic strength, buffers); assay type: physicochemical
Procedure: Hydrogel Formation. Peptide solutions of O5 were prepared at 1% by weight (4.2 mM) in 149 mM sucrose and 0.5×HBSS. This buffer system was chosen to be consistent with prior MDP experiments and find optimum gelling conditions for future in vivo and in vitro work. Peptide solutions were sonicated using a Microson Ultrasonic Cell Disruptor with a 2 mm microprobe. The instrument frequency was 22.5 kHz and a power output up to 10 watts (RMS) was used. Solutions were sonicated at room temperature for 1 or 10 cycles, where each cycle consisted of 10 pulses and 1 min relaxation time between cycles. For the study of hydrogelation of O5, K2 and E2 at different pH values and ionic strength, 1% by weight peptide solutions were prepared in deionized water, PBS, or HBSS. pH was adjusted using HCl or NaOH 0.1 M solutions.

For CC(=O)N1C[C@H](O)C[C@H]1C(=O)N1C[C@H](O)C[C@H]1C(=O)N1C[C@H](O)C[C@H]1C(=O)N1C[C@H](O)C[C@H]1C(=O)N1C[C@H](O)C[C@H]1C(=O)N[C@@H](CO)C(=O)N[C@@H](CC(C)C)C(=O)N[C@@H](CO)C(=O)N[C@@H](CC(C)C)C(=O)N[C@@H](CO)C(=O)N[C@@H](CC(C)C)C(=O)N[C@@H](CO)C(=O)N[C@@H](CC(C)C)C(=O)N[C@@H](CO)C(=O)N[C@@H](CC(C)C)C(=O)N[C@@H](CO)C(=O)N[C@@H](CC(C)C)C(=O)N1C[C@H](O)C[C@H]1C(=O)N1C[C@H](O)C[C@H]1C(=O)N1C[C@H](O)C[C@H]1C(=O)N1C[C@H](O)C[C@H]1C(=O)N1C[C@H](O)C[C@H]1C(N)=O [Peptide O5, Ac-OOOOOSLSLSLSLSLSLOOOOO-CONH2] (Ac-[Hyp][Hyp][Hyp][Hyp][Hyp]SLSLSLSLSLSL[Hyp][Hyp][Hyp][Hyp][Hyp]-NH2), the “cell spreading and adhesion to the material” value (NIH-3T3 fibroblasts; 5 days encapsulated, actin staining) was “do not spread and adhere to the material”, the “cell recovery after extraction from the hydrogel” value (NIH-3T3 fibroblasts; after 5 days of culture) was “recover, grow, and proliferate” and the “percentage of viable cells” value (NIH-3T3 fibroblasts; day 3 compared with day 1) was “relatively unchanged”. The “cytotoxicity / viability over the culture” value (NIH-3T3 fibroblasts; days 1 to 5, 1 wt.% hydrogel) was “good initial viability, which remains constant throughout the experiment”, the “cell proliferation / viable cell density in the gel” value (NIH-3T3 fibroblasts; up to day 5) was “not observed to proliferate” and the viability at 24 h, 1 % by weight [1] was about 70%. The “% PPII” value [2] was 50%, the “% α-helix” value [2] was 40.5% and the “% β-sheet” value [2] was 9.5%. The “Predominant Structure” value [2] was “PPII”, the inflammatory response ([3]; compared to K2 hydrogel) was “weaker inflammatory response” and the implant degradation ([3]; day 14) was “almost completely degraded”. The “collagen deposition / remodeling” value ([3]; day 14, Masson's trichrome) was “natural collagen is observed”, the fibrous encapsulation ([3]; subcutaneous implant, in contrast with PEG) was “not fibrously encapsulated” and the “loss modulus (G″)” value [4] was 1.7±0.5 Pa. For the same compound, the “storage modulus (G′)” value [4] was 23.3±8.7 Pa, the “state of the peptide at 10 mg/mL” value ([5]; 10 mg/mL) was “forms a hydrogel” and the “hydrogelation in cell culture media” value ([5]; 1% by weight in 149 mM sucrose and 0.5×HBSS, ultrasonication) was “forms a self-supportive hydrogel”. The “hydrogel formation at acidic, neutral and basic pH” value ([5]; 1% by weight, pH adjusted with HCl or NaOH, inverted-vial test / CD) was “remains a hydrogel at acidic, neutral and basic pH; also recorded: remains a hydrogel at all pH” and the “pH range over which peptide remains a hydrogel” value ([5]; also in deionized water, PBS and HBSS) was 3-11.
